Key:
[1] = tested on: HCT116 cells; experiment: NADP/NADPH ratio and dUMP levels in HCT116 cells; type: cell-based, human; details: dose-response
Protocol: For analysis of intracellular metabolites by LC-MS, adherent cell lines were plated and grown to 80% confluency in 6-well plates. At the start of an experiment, the appropriate media was added to cells, which included isotope tracers and/or chemical inhibitors as described. Cells were incubated at 37° C. at 5% CO2 for 2 hours (unless otherwise noted). For all experiments involving small molecule agents, DMSO concentrations were <0.2%. After 2 hours, media was removed by aspiration and metabolome extraction was performed (without any wash steps) by the addition of 800 µL of ice cold solvent (40:40:20 acetonitrile:methanol:water + 0.5% formic acid). After a 1-minute incubation on ice, the extract was neutralized by the addition of NH4HCO3 (15% w/v). The samples were incubated at -20° C. for approximately 30 minutes, at which point the wells were scraped and the extract transferred to Eppendorf tubes and centrifuged (15 minutes, 16000 rpm, 4° C.). […]
(§1) Metabolites were analyzed using a quadrupole-orbitrap mass spectrometer (Q Exactive Plus, Thermo Fisher Scientific, Waltham, MA), coupled to hydrophilic interaction chromatography (HILIC) with LC separation on a XBridge BEH Amide column (Waters), or a stand-alone orbitrap (Thermo-Fisher Exactive) coupled to reversed-phase ion-pairing chromatography with LC separation on a HSS-T3 column (Waters). […]

[2] = tested on: T cell lineages; experiment: NADPH and NADP+ pools across cell types (LC-MS); type: cell-based
Protocol: (§2) For suspension cells (including T cells and red blood cells), 2×10^6 cells were seeded in 1 mL of media in 12-well plates and incubated with appropriate media, which included isotope tracers and/or chemical inhibitors and/or cytokines, as described. For all experiments involving small molecule agents, DMSO concentrations were <0.2%. After 2 hours, cell suspensions were transferred to 1.5 mL tubes and pelleted (30 seconds, 6000 rpm, room temperature). Media was removed by aspiration and metabolome extraction was performed by the addition of 75 µL of ice cold solvent (40:40:20 ACN:MeOH:H2O + 0.5%FA). After a 5-minute incubation on ice, acid was neutralized by the addition of NH4HCO3. After centrifugation (15 minutes, 16000 rpm, 4° C.), the resulting supernatant was transferred to a clean tube, frozen on dry ice and kept at -80° C. until LC-MS analysis.
as §1

[3] = tested on: mouse CD8+ and CD4+ T cells; experiment: Metabolites and 1-2H-glucose tracing in active T cells; type: cell-based
Protocol: Cells were cultured in complete RPMI media (RPMI 1640 supplemented with 10% FBS, 100 U/ml penicillin, 100 µg/ml streptomycin, and 50 µM 2-mercaptoethanol). Naïve T cells were either rested in complete RPMI media supplemented with recombinant IL-7 (50U/mL) or stimulated for 48 hours with plate-bound anti-CD3 (10 µg/ml) and anti-CD28 (5 µg/ml) in complete RPMI media supplemented with 100 µM alanine and recombinant IL-2 (100 U/mL). Activated T cells were maintained in complete RPMI media supplemented with recombinant IL-2 (100 U/mL). All experiments on “active” T cells were performed at day 4-5 post-activation
For all experiments involving stable isotope tracers (e.g., 1-^2H-glucose), the isotope tracer nutrient was substituted for unlabeled nutrient at the same concentration normally found in the base media for a given cell type (e.g., DMEM for HCT116, RPMI for T cells, etc.). In addition, dialyzed FBS was used as a supplement in place of FBS.
as §2

[4] = tested on: bone marrow derived macrophages; experiment: Intracellular cytokines in bone marrow-derived macrophages; type: cell-based, mouse
Protocol: Mouse bone marrow monocyte/macrophage progenitors were isolated from femur and tibia and cultured in BMM media (DMEM supplemented with 10% FBS, 20% L929-conditioned media, 100 U/ml penicillin, and 100 µg/ml streptomycin). Expression of CD11b and F4/80 was checked by flow cytometry after 6 days in culture. Mature macrophages were either maintained in BMM media (M0 macrophages) or stimulated overnight with LPS (100 ng/mL) + IFNγ (20 ng/mL) for M1 activation or IL-4 (20 ng/mL) for M2 activation.
To analyze intracellular cytokines, active T cells were re-stimulated with PMA (20 ng/ml) and ionomycin (1 µg/ml) in the presence of GolgiStop and increasing concentrations of G6PDi-1. After a 6-hour incubation period, cells were collected, washed with PBS and stained with the viability dye Live/Dead Aqua. Cells were then washed with staining buffer and stained for surface markers: CD4 (APC-Cy7, clone RM4-5,), CD8a (PerCP-Cy5.5, clone 53-6.7). Cells were then fixed and permeabilized and stained for intracellular cytokines: IFN-γ (FITC, clone XMG1.2), TNFα (PE-Cyanine7, clone MP6-XT22) and IL-2 (PE, clone JES6-5H4). To analyze intracellular cytokines, mature macrophages were stimulated with LPS (100 ng/mL) + IFNγ (20 ng/mL) in the presence of GolgiStop and increasing concentrations of G6PDi-1. […]

[5] = tested on: CD4+ regulatory T cells (Treg); experiment: Treg assays; type: cell-based; details: CD3/CD28 in the presence of TGF-β
Protocol: Spleen and peripheral lymph nodes were harvested and processed to single cell suspensions of lymphocytes. Red blood cells were removed with hypotonic lysis. We used magnetic beads (Miltenyi Biotec, San Diego, CA) for isolation of Tconv (CD4^+CD25^-), Treg (CD4^+CD25^+), and antigen presenting cells (CD90.2^-). For cell culture medium, we used RPMI 1640 medium supplemented with 10% fetal bovine serum (FBS), penicillin (100 U/mL), streptomycin (100 µg/mL), and 55 µM β-mercaptoethanol Treg suppression and iTreg polarization were conducted as previously reported. For Treg suppression assays, Tconv were purified and stimulated with irradiated antigen presenting cells plus CD3ε mAb (1 µg/mL, BD Pharmingen). To assess proliferation, Tconv cells were labeled with carboxyfluorescein succinimidyl ester (CFSE), and Treg cells with CellTrace Violet. After 72 h, proliferation of Tconv and Treg cells was determined by flow cytometric analysis of CFSE and CellTrace Violet dilution, respectively. For conversion to Foxp3^+ Tregs, Tconv cells were incubated for 3-5 days with CD3ε/CD28 mAb beads, plus TGF-β (3 ng/mL) and IL-2 (25 U/mL), and analyzed by flow cytometry for Foxp3+ iTreg. Flow cytometry data was captured using Cytoflex (Beckman Coulter, Brea, CA) and analyzed using the FlowJo 10.2 software.

N#Cc1cc(Nc2ncc3c(n2)CCCCC3=O)cs1 [Compound 2, 4-([5-oxo-6H,7H,8H,9H-cyclohepta[d]pyrimidin-2-yl]amino)thiophene-2-carbonitrile]
NADP/NADPH [1]: dose-dependent increases | dUMP [1]: dose-dependent increases | decrease in NADPH [2]: > 10 fold | increase in NADP+ [2]: 5-10 fold | NADPH and 6-pg levels ([3]; 10 µM, day 4-5 post-activation): decreased | 2H transfer from glucose to NADPH ([3]; 10 µM, day 4-5 post-activation, 1-2H-glucose): completely blocked | fatty acid synthesis ([3]; CD8+ T cells): nearly completely ablated | time to effects on NADPH labeling and NADP+, NADPH and 6-pg levels ([3]; active CD8+ T cells, 50 µM): ≤ 10 min | time to restoration of NADPH, NADP+ and 6-pg levels after removing the inhibitor ([3]; active T cells): ≤ 2 h | macrophage cytokine production ([4]; classically activated macrophages (MΦ-1)): minimally affecting | NADPH, LPS-induced pro-inflammatory cytokine production, iNOS upregulation ([4]; macrophages): did not decrease | formation and proliferation of Foxp3+ cells [5]: unaffected
